Reference: patent US6582719B2, “Combinations of antiseptic and antibiotic agents that inhibit the development of resistant microorganisms” (priority 2001, dated 2003)
Where two headings read alike, the source gives them in different places.

Experiments:
Pseudomonas aeruginosa = assay: Zones of inhibition of treated catheter segments on seeded trypticase soy agar plates, 24 hours
[1] = tetrahydrofuran/methanol solvent systems
S. epidermidis [2] = format: cell-based, Staphylococcus epidermidis
S. epidermidis [3] = assay: Minimum inhibitory concentration in Trypticase Soy Broth, synergy (fractional inhibitory concentration); format: cell-based, Staphylococcus epidermidis
[4] = 10-20 passages, inoculum 10^4 cfu/ml
[5] = 10 transfers, inoculum 10^6 cfu/ml
[6] = catheter treated with 2% bismuth salt
[7] = catheter treated with 2% bismuth salt + 3% minocycline

Row | Molecule | Zones of Inhibition Against Pseudomonas aeruginosa (mm) 2% Bismuth Salt (Pseudomonas aeruginosa) [mm] | Zones of Inhibition Against Pseudomonas aeruginosa (mm) 2% Bismuth Salt + 3% Minocycline (Pseudomonas aeruginosa) [mm] | INCREASE IN MIC (fold) (S. epidermidis [2]; [4]) | other results
1 | O=C([O-])c1ccccc1.O=C([O-])c1ccccc1.O=C([O-])c1ccccc1.[Bi+3] [Bismuth benzoate, bismuth benzoate] | 0 | 18 | – | –
2 | CCn1cc(C(=O)O)c(=O)c2cc(F)c(N3CCNCC3)cc21 [Norfloxacin (Nf), norfloxacin] | – | – | 40 fold | upper limit incorporated (low solubility in tetrahydrofuran/methanol) [1]: about 0.5 percent (w/v)
3 | CN(C)c1ccc(O)c2c1C[C@H]1C[C@H]3[C@H](N(C)C)C(O)=C(C(N)=O)C(=O)[C@@]3(O)C(O)=C1C2=O [Minocycline (M), minocycline] | – | – | 2 fold | INCREASE IN MIC (fold) (S. epidermidis [2]; [5]): 4 fold
4 | bismuth sulfadiazine | – | – | – | Zones of Inhibition Against Pseudomonas aeruginosa (mm) 2% Bismuth Salt (Pseudomonas aeruginosa; [6]): 6.5 mm; Zones of Inhibition Against Pseudomonas aeruginosa (mm) 2% Bismuth Salt + 3% Minocycline (Pseudomonas aeruginosa; [7]): 15.5 mm
5 | bismuth salicylate | 0 | 17 | – | –
6 | bismuth palmitate | 0 | 18.5 | – | –
7 | bismuth mandelate | 0 | 18.5 | – | –
8 | O=C([O-])CC(O)(CC(=O)[O-])C(=O)[O-].[Bi+3] [Bismuth citrate, bismuth citrate] | 0 | 17 | – | –
9 | O=[N+]([O-])[O-].O=[N+]([O-])[O-].O=[N+]([O-])[O-].[Bi+3] [Bismuth Nitrate, bismuth nitrate] | – | – | – | Zones of Inhibition Against Pseudomonas aeruginosa (mm) 2% Bismuth Salt (Pseudomonas aeruginosa; [6]): 0 mm; Zones of Inhibition Against Pseudomonas aeruginosa (mm) 2% Bismuth Salt + 3% Minocycline (Pseudomonas aeruginosa; [7]): 15 mm
10 | Oc1cc(Cl)ccc1Oc1ccc(Cl)cc1Cl [Triclosan (T), triclosan] | – | – | 7 fold | MIC (S. epidermidis [3]; Staphylococcus epidermidis, 24 h): 0.35 µg/mL; INCREASE IN MIC (fold) (S. epidermidis [2]; [5]): 7 fold
11 | polyhexamethylenebiguanide [PHMB] | – | – | – | INCREASE IN MIC (fold) (S. epidermidis [2]): 1.0 fold; MIC (μg/ml) AFTER PASSAGE (S. epidermidis [2]): 0.31 µg/mL; MIC (μg/ml) BEFORE PASSAGE (S. epidermidis [2]): 0.31 µg/mL
12 | CC(=O)O.CC(=O)O.NC(=N\CCCCCC/N=C(N)/N=C(\N)Nc1ccc(Cl)cc1)/N=C(\N)Nc1ccc(Cl)cc1 [Chlorhexidine (CHX), chlorhexidine diacetate] | – | – | – | MIC (S. epidermidis [3]; inoculum of 10^4 cfu/ml): 0.5 µg/mL; INCREASE IN MIC (fold) (S. epidermidis [2]): 2 fold; MIC (μg/ml) AFTER PASSAGE (S. epidermidis [2]): 1.0 µg/mL; MIC (μg/ml) BEFORE PASSAGE (S. epidermidis [2]): 0.5 µg/mL
13 | [Bi+3].[O-]B([O-])[O-] [Bismuth borate, bismuth borate] | 0 | 13 | – | –
14 | CO[C@H]1/C=C/O[C@@]2(C)Oc3c(C)c(O)c4c(O)c(c(/C=N/N5CCN(C)CC5)c(O)c4c3C2=O)NC(=O)/C(C)=C\C=C\[C@H](C)[C@H](O)[C@@H](C)[C@@H](O)[C@@H](C)[C@H](OC(C)=O)[C@@H]1C [Rifampin (R), rifampin] | – | – | 25,000 fold | –
15 | CC(=O)[O-].CC(=O)[O-].CC(=O)[O-].[Bi+3] [Bismuth acetate, bismuth acetate] | 0 | 17 | – | –
16 | NC[C@H]1O[C@H](O[C@H]2[C@H](O)[C@@H](O[C@H]3O[C@H](CO)[C@@H](O)[C@H](N)[C@H]3O)[C@H](N)C[C@@H]2N)[C@H](N)C[C@@H]1O [Tobramycin (Tb), tobramycin] | – | – | 20 fold | –
